The results in this text go back to PMC5989765, “The safety, tolerability, and pharmacokinetic profile of GSK2838232, a novel 2nd generation HIV maturation inhibitor, as assessed in healthy subjects” (Pharmacology Research & Perspectives, 2018).

Entries after “also recorded” stand apart in the source; their conditions may differ. Where two headings read alike, the source gives them in different places.

The nature of this series: Study 204953 Part 1A: single doses 50-250 mg API PiB with RTV, healthy subjects. It is filed as in vivo, human. The note with it: for Cmax / Tmax / concentration at 24 h / AUC / half-life: human, plasma, oral; for Tmax / concentration at 24 h: median (range); for concentration at 24 h: read-out: C24; for AUC: read-out: AUC(0‐∞); for half-life: read-out: t½ (converted); for dose proportionality of exposure (AUC and C max): single doses 50 to 250 mg with RTV. The protocol:
This study was planned as an extension of the previously conducted single‐ and multiple‐dose escalation studies described above. It was a double‐blind, placebo‐controlled, single and repeat dose escalation study of micronized API GSK2838232 with RTV conducted in three parts (Part 1A, Part 1B, and Part 2).
In Part 1A, a cohort of subjects was given single doses of 50, 100, and 250 mg of GSK2838232 with RTV, following 2 days of RTV predosing, in a sequential dose‐escalation design. Part 1B studied the relative bioavailability of GSK2838232 given as 100 mg (2 × 50 mg) capsules versus the reference API (PiB) in a two‐period crossover design with RTV, following 2 days of RTV predosing. In Period 3, subjects took the capsule formulation and RTV with a moderate fat meal (30% of calories from fat).
Blood samples were taken via an indwelling cannula or by direct venipuncture, collected into a di‐potassium ethylenediaminetetraacetic acid (K2 EDTA) tube, and placed on wet ice. Samples were centrifuged at approximately 1500g for 10 minutes at approximately 4°C. Exactly 500 μL of the resulting plasma was transferred into labeled 1.4 mL Matrix TrakMate Tubes containing exactly 500 μL of 50 mmol/L citrate buffer, pH 4.0, and mixed well. When 500 μL of plasma was not able to be transferred, the ratio of plasma to citrate buffer was kept at 1:1. Buffered plasma samples were kept on ice and frozen at −70°C within 1 hour of collection. Plasma samples were analyzed for GSK2838232 using a validated analytical method based on protein precipitation, followed by high performance liquid chromatography with tandem mass spectrometry (HPLC/MS/MS) analysis.
Extracts were analyzed using HPLC (Shimadzu, Nexera, 30 series) and tandem mass spectrometry detection (HPLC‐MS/MS). The mass spectrometer used was an API‐5500 using IonSpray interface (500 V) in positive mode monitoring. The mass transitions were 809.5 to 255.1 and 816.5 to 262.1 for GSK2838232 and [2H7] GSK2838232 (the isotopically labeled internal standard), respectively. The chromatographic conditions utilized a Waters Acquity UPLC BEH C18 column (50 × 2.1 mm, 1.7 μm) with mobile phases consisting of 1 mmol/L ammonium formate:formic acid (100:0.005) (mobile phase A) and acetonitrile:formic acid (100:0.1) (mobile phase B) at a flow rate of 0.6 mL/min, with pump B at 63% held for 2 minutes. The assay was validated to have precision (%RSD) of 0.7%‐6.5% (within‐run) and 1.0%‐5.9% RSD (between‐run) and with accuracy (%bias) of 0.0%‐1.6%. […] The lower limit of quantification (LLQ) was 0.5 ng/mL, using a 50 μL aliquot of K2EDTA acidified plasma. The higher limit of quantification (HLQ) was 500 ng/mL.
The PK parameters were calculated by standard noncompartmental analysis based on actual sampling times using WinNonlin Version 6.3 or higher. Estimation of AUC used the linear up/log down trapezoidal rule.

Where [1] appears, read: single 50 mg API PiB, fasted, with ritonavir (2 days predosing).
Where [2] appears, read: single 100 mg API PiB, fasted, with ritonavir (2 days predosing), geometric mean (95% CI).
[3] abbreviates: single 100 mg API PiB, fasted, with ritonavir (2 days predosing).
Where [4] appears, read: single 250 mg API PiB, fasted, with ritonavir (2 days predosing), geometric mean (95% CI).
Where [5] appears, read: single 250 mg API PiB, fasted, with ritonavir (2 days predosing).

As usually defined, the Cmax is the maximum level reached in the sampled fluid or tissue. The Tmax is the time from dosing to the highest level. What is called AUC is concentration integrated over time. As to `CC(C)C1=C2[C@H]3CC[C@@H]4[C@@]5(C)CC[C@H](OC(=O)CC(C)(C)C(=O)O)C(C)(C)[C@@H]5CC[C@@]4(C)[C@]3(C)CC[C@@]2([C@@H](O)CN(CCN(C)C)Cc2ccc(Cl)cc2)CC1=O` [GSK2838232], the “dose proportionality of exposure (AUC and C max)” value is reported as “proportional PK; also recorded: proportional pharmacokinetics”. Further, under “single 50 mg API PiB, fasted, with ritonavir (2 days predosing), geometric mean (95% CI)”, the concentration peaked (Cmax) at 15.7 ng/mL. Under setting [1], the Tmax was 3 h and the concentration at 24 h was 7.26 ng/mL. For the same compound, under setting [2], the highest level (Cmax) was 24.7 ng/mL; the AUC was found to be 846 ng·h/mL; the half-life is 17.9 h; the CL/F is 118 (93.3, 150) L/h. Besides, under setting [3], the Tmax turned out to be 5 h and the concentration at 24 h is 13.2 ng/mL. Under setting [4], the Cmax was 63 ng/mL, the AUC was determined as 1690 ng·h/mL and the half-life was 17.9 h. Under setting [5], the Tmax turned out to be 5.98 h and the concentration at 24 h was 24 ng/mL. The “dose proportionality of exposure (AUC and C max)” value (listed as GSK283832) is “generally dose proportional”.
